Results on three compounds are retold here after patent publication US11478471B2, “Methods and compositions for treating diabetes, metabolic syndrome and other conditions” (priority 2005, dated 2022).

One data set concerns plasma corticosterone. As to the kind of experiment: Plasma corticosterone in rats after oral dosing (ELISA). Type of data set: in vivo, Sprague Dawley rats. Particulars: for effect on plasma corticosterone (FIG. 1): 200 mg/kg oral, vs vehicle; for Corticosteroid Levels (mean ± SEM): 4 h after gavage. Here is the method: To generate the results shown in FIG. 1, five groups (eight per group) of rats were used. The rats were maintained on a 14/10 hour light/dark cycle and allowed free access to food and water. Each rat was dosed (200 mg drug/kg body weight) via a gastric tube. […] All of the rats were dosed between 2.00 and 3.00 pm and were sacrificed four hours later (between 6.00 and 7.00 pm). Plasma was prepared and the concentration of corticosterone determined by an enzyme linked immuno assay (ELISA). In rats, the predominant active glucocorticoid is corticosterone; in humans, the predominant active glucucorticoid is the closely related molecule cortisol.
The rats were maintained and dosed as described above. Plasma was prepared and the concentration of corticosterone in the plasma determined by ELISA.
(§1) The rats were maintained as described above; the drugs were suspended in olive oil, and each rat was dosed once via gastric tube to achieve a dose of 200 mg/kg. All of the rats were dosed at a specific time so that all terminations occurred between 6 and 7 pm. […] Following sacrifice, plasma was prepared, and the concentration of corticosterone in the plasma was determined by ELISA. In the same plasma samples, total cholesterol levels were also determined.
In the Table, corticosterone levels (mean±SEM; ng/mL) were determined four hours after oral gavage of the indicated drug (N=10/group). There was a single control group (dosed with vehicle).
Corticosterone levels (mean±SEM; ng/mL) were determined at the indicated times after oral gavage of the indicated drug at 200 mg/kg. […] The means of the vehicle treated groups are used as the time zero control point.
For orientation: An ELISA detects its analyte on a solid surface through an enzyme-linked reagent.

A further data set has as its system cholesterol levels. As to the kind of experiment: Cholesterol levels in rats after oral dosing. Type of data set: in vivo, Sprague Dawley rats. The settings on record: single oral 200 mg/kg. Here is the method:
as §1

The test system of the next data set is testosterone levels. Description: Testosterone levels in rats after oral dosing. Format: in vivo, Sprague Dawley rats. The settings on record: for Testosterone levels (mean ± SEM): 4 h after gavage. From the text: There was a single control group (dosed with vehicle).
The means of the vehicle treated groups are used as the time zero control point.

The next data set has as its system Candida albicans. As to the kind of experiment: Antifungal MIC. Format: cell-based. Particulars: read-out: MIC.
The next data set deals with Candida glabrata. Description: Antifungal MIC. Type of data set: cell-based. Particulars: Nakaseomyces glabratus, read-out: MIC.
For the next data set, the system named is Candida guilliermondii. Description: Antifungal MIC. Format: cell-based. Particulars: Meyerozyma guilliermondii, DSM11947; DSM strain 11947, 48 h.
Another data set has as its system Candida kefyr. As to the kind of experiment: Antifungal MIC. Particulars: Kluyveromyces marxianus, DSM11954; DSM strain 11954, 48 h. Type of data set: cell-based.
The subject of the next data set is Candida parapsilosis. Description: Antifungal MIC. Format: cell-based. The settings on record: Lodderomyces parapsilosis, read-out: MIC.
Another data set concerns Candida tropicalis. As to the kind of experiment: Antifungal MIC. Type of data set: cell-based.
The next data set concerns Cryptococcus neoformans. Description: Antifungal MIC. Format: cell-based.
In the next data set the test system is Issatchenkia orientalis. As to the kind of experiment: Antifungal MIC. Type of data set: cell-based. The settings on record: Pichia kudriavzevii, read-out: MIC.
The subject of another data set is Saccharomyces cerevisiae. Description: Antifungal MIC. Type of data set: cell-based. Particulars: DSM01333, DSM strain 01333, 48 h.
Another data set has as its target P450 2C6 (Rattus norvegicus, UniProt P05178). The settings on record: Rotstein et al. 1992; read-out: IC50, progesterone 21 hydroxylase (2C6); cited from earlier work.
The subject of the next data set is P450 3A. The settings on record: read-out: IC50, progesterone 6β hydroxylase (3A); Rotstein et al. 1992; cited from earlier work.
Data set [1] concerns P450 2B1, 2B2, 1A1, 2C11, 3A. The settings on record: read-out: IC50, progesterone 16α hydroxylase (2B1, 2B2, 1A1, 2C11, 3A); Rotstein et al. 1992; cited from earlier work.
The next data set relates to P450 4A. The settings on record: read-out: IC50, lauric acid hydroxylase (4A); Rotstein et al. 1992; cited from earlier work.
The conditions of data set [2]: humans, cited from earlier work.
Data set [3] deals with CYP7A (cholesterol 7α hydroxylase). As to the kind of experiment: Inhibition of CYP7A, cholesterol 7α-hydroxylase activity (Rotstein et al. 1992). The settings on record: assuming intrahepatic concentration approximately 20% of total plasma concentration; listed as 2R,4S enantiomer.
In another data set the target is T1, succinate dehydrogenase (Rattus norvegicus, UniProt Q920L2).
T1 construct: host or cells: isolated rat liver mitochondria (from the cited title)
Particulars: read-out: in vitro IC50, succinate dehydrogenase; cited from earlier work.

Setting [4] is: following fifth 200 mg dose of racemic ketoconazole (every twelve hours).
Where [5] appears, read: following first 200 mg dose of racemic ketoconazole.

In brackets after ≈: the same amount, converted by molar mass. Entries after “also recorded” stand apart in the source; their conditions may differ. Where two headings read alike, the source gives them in different places. A value given as a limit tells only on which side of the number the result lay.

T1 sequence (Q920L2 35-656): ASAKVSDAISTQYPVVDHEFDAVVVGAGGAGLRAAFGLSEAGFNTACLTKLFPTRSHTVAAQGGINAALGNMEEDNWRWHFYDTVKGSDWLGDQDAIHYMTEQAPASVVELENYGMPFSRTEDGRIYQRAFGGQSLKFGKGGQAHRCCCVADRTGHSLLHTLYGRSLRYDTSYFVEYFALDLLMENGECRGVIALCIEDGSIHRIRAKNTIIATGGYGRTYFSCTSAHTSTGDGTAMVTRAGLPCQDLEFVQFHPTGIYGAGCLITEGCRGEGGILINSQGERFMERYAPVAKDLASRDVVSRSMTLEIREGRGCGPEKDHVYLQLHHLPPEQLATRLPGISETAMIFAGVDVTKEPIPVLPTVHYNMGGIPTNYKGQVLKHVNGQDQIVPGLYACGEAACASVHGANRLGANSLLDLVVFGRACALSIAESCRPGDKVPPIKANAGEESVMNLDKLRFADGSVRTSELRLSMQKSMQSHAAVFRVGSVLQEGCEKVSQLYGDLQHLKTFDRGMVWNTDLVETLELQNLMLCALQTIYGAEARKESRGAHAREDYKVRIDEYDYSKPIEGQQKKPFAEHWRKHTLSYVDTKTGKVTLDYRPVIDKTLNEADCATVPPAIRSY
T1 sequence (P21913 31-282 partner): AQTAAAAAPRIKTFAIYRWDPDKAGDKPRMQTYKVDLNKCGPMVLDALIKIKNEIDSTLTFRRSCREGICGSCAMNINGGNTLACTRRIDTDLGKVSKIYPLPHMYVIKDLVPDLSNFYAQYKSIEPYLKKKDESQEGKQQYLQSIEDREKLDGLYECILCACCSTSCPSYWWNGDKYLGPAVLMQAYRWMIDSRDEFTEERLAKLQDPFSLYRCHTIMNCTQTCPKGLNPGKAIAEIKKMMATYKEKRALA
T1 sequence (Q641Z9 30-169 partner limits assumed): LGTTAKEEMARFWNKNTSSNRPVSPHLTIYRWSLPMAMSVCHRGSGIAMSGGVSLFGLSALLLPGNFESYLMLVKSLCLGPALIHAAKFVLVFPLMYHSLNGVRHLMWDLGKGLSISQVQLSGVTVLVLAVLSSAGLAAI
T1 sequence (Q6PCT8 57-159 partner): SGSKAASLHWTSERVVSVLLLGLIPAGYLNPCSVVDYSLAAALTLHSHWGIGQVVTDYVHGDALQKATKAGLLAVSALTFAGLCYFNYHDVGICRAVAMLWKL
Chain of P450 2C6 (P05178 whole entry): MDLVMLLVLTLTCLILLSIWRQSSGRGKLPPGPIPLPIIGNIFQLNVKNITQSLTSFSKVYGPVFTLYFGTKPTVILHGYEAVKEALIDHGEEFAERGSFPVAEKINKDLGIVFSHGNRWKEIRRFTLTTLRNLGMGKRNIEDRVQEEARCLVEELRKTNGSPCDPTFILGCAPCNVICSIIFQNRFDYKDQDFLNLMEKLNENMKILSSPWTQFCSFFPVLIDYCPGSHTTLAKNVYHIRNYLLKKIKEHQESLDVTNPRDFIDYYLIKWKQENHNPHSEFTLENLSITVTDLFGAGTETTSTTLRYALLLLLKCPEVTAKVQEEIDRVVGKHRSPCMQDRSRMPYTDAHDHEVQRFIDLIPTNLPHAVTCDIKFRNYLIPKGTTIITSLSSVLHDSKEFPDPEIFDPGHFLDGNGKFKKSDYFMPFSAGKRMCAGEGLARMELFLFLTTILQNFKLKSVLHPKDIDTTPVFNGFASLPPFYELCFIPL

For orientation: MIC means the smallest concentration in the dilution series that meets the test's criterion for growth inhibition. Broadly, the IC50 is the concentration that gives 50% inhibition. By Cmax is commonly meant the maximum level reached in the sampled fluid or tissue. `CC(=O)N1CCN(c2ccc(OC[C@H]3CO[C@](Cn4ccnc4)(c4ccc(Cl)cc4Cl)O3)cc2)CC1` [2R,4S]: the “effect on plasma corticosterone (FIG. 1)” value in the data set with plasma corticosterone (4 h) is reported as “reduce corticosterone”. The “Corticosteroid Levels (mean ± SEM)” value in the data set on plasma corticosterone (single oral 50 mg/kg) came out at 226 ± 30.1 ng/mL; with plasma corticosterone (single oral 100 mg/kg), 196 ± 17.2 ng/mL; in the data set on plasma corticosterone (single oral 200 mg/kg) it was 217 ± 25.8 ng/mL; with plasma corticosterone (single oral 400 mg/kg), 192 ± 11.6 ng/mL; in the data set on plasma corticosterone (single oral 600 mg/kg) it was 167 ± 6.8 ng/mL. In addition, the “Corticosteroid Levels (mean ± SEM), time course” value is 191 ± 14 ng/mL in the data set with plasma corticosterone (single oral 200 mg/kg, 4 h); 206 ± 13 ng/mL in the data set on plasma corticosterone (single oral 200 mg/kg, 8 h); 175 ± 9 ng/mL in the data set with plasma corticosterone (single oral 200 mg/kg, 12 h); 171 ± 9 ng/mL in the data set on plasma corticosterone (single oral 200 mg/kg, 16 h); 169 ± 7 ng/mL in the data set with plasma corticosterone (single oral 200 mg/kg, 20 h); 182 ± 10 ng/mL with plasma corticosterone (single oral 200 mg/kg, 24 h). For the same compound, the “Cholesterol Levels (mean ± SEM)” value with cholesterol levels (4 h) came to 85.1 ± 7 mg/dL; with cholesterol levels (8 h) it was 85.1 ± 5.4 mg/dL; with cholesterol levels (12 h), 77.3 ± 1.9 mg/dL; in the data set with cholesterol levels (16 h), 77.3 ± 4.6 mg/dL; in the data set on cholesterol levels (20 h), 69.6 ± 2.7 mg/dL; in the data set with cholesterol levels (24 h), 69.6 ± 1.5 mg/dL. In addition, the “Testosterone levels (mean ± SEM)” value with testosterone levels (single oral 50 mg/kg) was found to be 2.5 ± 0.5 nmol/L; in the data set on testosterone levels (single oral 100 mg/kg) it was 1.3 ± 0.2 nmol/L; in the data set on testosterone levels (single oral 200 mg/kg), 1.4 ± 0.4 nmol/L; with testosterone levels (single oral 400 mg/kg), 0.7 ± 0.2 nmol/L; in the data set with testosterone levels (single oral 600 mg/kg), 1.6 ± 0.3 nmol/L. Moreover, the “Testosterone levels (mean ± SEM), time course” value in the data set with testosterone levels (single oral 200 mg/kg, 4 h) was 3.4 ± 0.5 nmol/L; in the data set on testosterone levels (single oral 200 mg/kg, 8 h), 8.6 ± 2.0 nmol/L; with testosterone levels (single oral 200 mg/kg, 12 h), 5.6 ± 1.1 nmol/L; in the data set with testosterone levels (single oral 200 mg/kg, 16 h), 5.5 ± 0.9 nmol/L; in the data set on testosterone levels (single oral 200 mg/kg, 20 h) it was 5.2 ± 1.1 nmol/L; in the data set with testosterone levels (single oral 200 mg/kg, 24 h), 6.0 ± 1.0 nmol/L. Further, the MIC in the data set on Candida albicans (DSM11225, DSM strain 11225, 48 h) was under 0.015 µg/mL; in the data set on Candida albicans (DSM11943, DSM strain 11943, 48 h), under 0.015 µg/mL; in the data set on Candida albicans (DSM11944, DSM strain 11944, 48 h), under 0.015 µg/mL; in the data set with Candida albicans (DSM11945, DSM strain 11945, 48 h) it was 0.03 µg/mL (≈ 0.0565 µM); with Candida albicans (DSM11948, DSM strain 11948, 48 h) it was under 0.015 µg/mL; with Candida albicans (DSM11949, DSM strain 11949, 48 h), 0.25 µg/mL (≈ 0.47 µM). The MIC with Candida albicans (strain 98-St-00799, 48 h) is under 0.015 µg/mL; in the data set with Candida glabrata (DSM11226, DSM strain 11226, 48 h), 0.5 µg/mL (≈ 0.941 µM); in the data set with Candida glabrata (DSM11950, DSM strain 11950, 48 h), 0.25 µg/mL (≈ 0.47 µM); against Candida guilliermondii it was 0.25 µg/mL (≈ 0.47 µM); against Candida kefyr, 0.03 µg/mL (≈ 0.0565 µM); with Candida parapsilosis (DSM05784, DSM strain 05784, 48 h) it was 0.06 µg/mL (≈ 0.113 µM). Further, the minimum inhibitory concentration (MIC) in the data set on Candida parapsilosis (DSM11224, DSM strain 11224, 48 h) worked out at 0.06 µg/mL (≈ 0.113 µM); in the data set on Candida tropicalis (DSM11951, 48 h), 0.125 µg/mL (≈ 0.235 µM); in the data set on Candida tropicalis (DSM11952, DSM strain 11952, 48 h, read-out: MIC), 4 µg/mL (≈ 7.53 µM); against Candida tropicalis (DSM11953, 48 h) it was 0.125 µg/mL (≈ 0.235 µM); with Cryptococcus neoformans (DSM11959, DSM strain 11959, 48 h), 0.03 µg/mL (≈ 0.0565 µM); with Cryptococcus neoformans (DSM11960, DSM strain 11960, 48 h), 0.125 µg/mL (≈ 0.235 µM). Also, the MIC in the data set with Issatchenkia orientalis (DSM11956, DSM strain 11956, 48 h) is 0.5 µg/mL (≈ 0.941 µM); in the data set on Issatchenkia orientalis (DSM11958, DSM strain 11958, 48 h), 2 µg/mL (≈ 3.76 µM); in the data set with Saccharomyces cerevisiae, 0.25 µg/mL (≈ 0.47 µM). Besides, the IC50 at P450 2C6 is 11.2 µM; in the data set on P450 3A, 0.79 µM; in data set [1], 69 µM; in the data set on P450 4A it was under 100 µM. For the same compound, the figures for the “AUC 0-12” value in [2] (setting [4]) and in data set [2] (setting [5]) were 1543 ± 231 µg·min/mL and 820 ± 142 µg·min/mL, respectively. For the same compound, the values for the peak concentration (Cmax) in [2] (setting [4]) and in [2] (setting [5]) were 4770 ± 550 ng/mL and 3400 ± 440 ng/mL, respectively. For the same compound, the “T ½” value in data set [2] (setting [4]) is 2.63 ± 0.317 h; in data set [2] (setting [5]) it was 1.62 ± 0.13 h. In data set [3], the “total plasma concentration required to inhibit intrahepatic CYP7A” value is listed as “approximately 1 microM; also recorded: approximately 0.5 microg/mL”.

Take `CC(=O)N1CCN(c2ccc(OCC3COC(Cn4ccnc4)(c4ccc(Cl)cc4Cl)O3)cc2)CC1` (stereo not drawn) [2S45]: the “effect on plasma corticosterone (FIG. 1)” value in the data set on plasma corticosterone (4 h) is on record as “little effect”.

Regarding `Clc1ccc(C2(Cn3ccnc3)OCC(COc3ccc(N4CCNCC4)cc3)O2)c(Cl)c1` (stereo not drawn) [DAK, deacetylated ketoconazole], the IC50 on succinate dehydrogenase was 350 µM.
